We go through 9 compounds from US20260022142A1, “MACROCYCLIC IMMUNOMODULATORS” (Bristol-Myers Squibb Company, priority 2022, published 2026).

The term IC50 denotes the concentration at which inhibition is half-maximal.

The structures appear in SMILES notation. Numbered stars: 1 amine (or outer) side, 2 acyl side, 3 side chain; on linkers, the order of the positions; unused ones are H or OH. Bridge positions count the residues as written; N and C are the ends. Square brackets hold non-standard residues; d marks the D form. Peptide text beside a SMILES is read from it. * marks the point of attachment. ξ: configuration not given here. Phe(4-COOH) = N[C@@H](Cc1ccc(C(=O)O)cc1)C(=O)O; Bip = N[C@@H](Cc1ccc(-c2ccccc2)cc1)C(=O)O; Tyr(3-F) = N[C@@H](Cc1ccc(O)c(F)c1)C(=O)O; Phe(3-Me) = Cc1cccc(C[C@H](N)C(=O)O)c1; γGlu = O=C(O)[C@H](CCC(=O)[*:2])N[*:1]; Val(3-OH) = CC(C)(O)[C@H](N)C(=O)O; 4Pal = N[C@@H](Cc1ccncc1)C(=O)O; Cha = N[C@@H](CC1CCCCC1)C(=O)O; Cit = NC(=O)NCCC[C@H](N)C(=O)O; Ile(3ξ) = CCC(C)[C@H](N)C(=O)O; Thr(3ξ) = CC(O)[C@H](N)C(=O)O; Carboxymethyl = O=C(O)C*; Orn = NCCC[C@H](N)C(=O)O; Aun = NCCCCCCCCCCC(=O)O; Dab = NCC[C@H](N)C(=O)O; Nva = CCC[C@H](N)C(=O)O; Dap = NC[C@H](N)C(=O)O; AEEA = NCCOCCOCC(=O)O

In this assay the target is T1, PD-1/PD-L1 interaction (PE-labeled human PD-L1-Ig binding to Jurkat cell line over-expressing human PD-1) (Homo sapiens, UniProt Q15116).
T1 construct: expressed in transfected cells; host or cells: Jurkat
T1 sequence (Q15116 25-288): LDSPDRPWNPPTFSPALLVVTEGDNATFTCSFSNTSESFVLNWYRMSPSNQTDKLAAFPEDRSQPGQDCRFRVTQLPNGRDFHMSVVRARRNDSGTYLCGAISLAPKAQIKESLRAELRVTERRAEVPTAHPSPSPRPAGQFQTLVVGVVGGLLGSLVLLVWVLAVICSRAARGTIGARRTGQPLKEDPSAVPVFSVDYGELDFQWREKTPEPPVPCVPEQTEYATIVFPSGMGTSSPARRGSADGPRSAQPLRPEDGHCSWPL
Description: Jurkat-PD-1 Cell Binding High-Content Screening Assay (CBA). The format is cell-based. The conditions noted are these: Jurkat cell line over-expressing human PD-1; PE-labeled PD-L1-Ig 20 nM final; read-out: Jurkat hPD1-PDL1 IC50. The gist of the method:
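Jurkat-hPD-1 cells, DMEM/10% FCS; cpd 2 h 37° C; PE-PD-L1-Ig 20 nM final, 1 h; 4% PFA fix + Hoechst 33342, 3× dPBS wash; high-content imaging read-out.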
With `CCC(C)[C@@H]1NC(=O)[C@H](CC2CCCCC2)NC(=O)[C@H](CCN)NC(=O)[C@@H](CC(C)C)NC(=O)[C@H](CCCN)NC(=O)[C@H](C(C)CC)NC(=O)[C@H](Cc2ccc(-c3ccccc3)cc2)NC(=O)[C@H](C(C)CC)NC(=O)[C@H](Cc2c[nH]c3ccccc23)NC(=O)[C@H](CC(=O)O)NC(=O)[C@H](Cc2ccc(OCC(=O)O)cc2)NC(=O)[C@H](C(C)O)NC(=O)CSC[C@@H](C(=O)N[C@H](CC(N)=O)C(=O)NCCOCCOCC(=O)N[C@@H](CCCN)C(=O)NCCCCCCCCCCC(=O)O)NC(=O)[C@H](CO)NC1=O` (stereo partly drawn) [Compound 3120] ({CH2CO}-[Thr(3ξ)]Y(Carboxymethyl)DW[Ile(3ξ)][Bip][Ile(3ξ)][Orn][dL][Dab][Cha][Ile(3ξ)]SC[dN][AEEA][Orn][Aun]-OH; thioether N-14), the half-maximal inhibitory concentration (IC50) was determined as 24.8 nM.

In the case of `Cc1cccc(C[C@@H]2NC(=O)[C@H](CC(=O)O)NC(=O)[C@H](Cc3ccc(OCC(=O)O)cc3)NC(=O)[C@H](CCN)NC(=O)CSC[C@@H](C(=O)N[C@@H](CCN)C(=O)NCCCCCCCCCCC(=O)O)NC(=O)[C@H](CO)NC(=O)[C@H](C(C)O)NC(=O)[C@H](CC3CCCCC3)NC(=O)[C@H](Cc3cnc[nH]3)NC(=O)[C@@H](CC(C)C)NC(=O)[C@H](CCCN)NC(=O)[C@H](Cc3ccc(OCC(=O)O)cc3)NC(=O)[C@H](Cc3ccc(-c4ccccc4)cc3)NC(=O)[C@H](Cc3ccc(OCC(=O)O)cc3)NC2=O)c1` (stereo partly drawn) [Compound 3672] ({CH2CO}-[Dab]Y(Carboxymethyl)D[Phe(3-Me)]Y(Carboxymethyl)[Bip]Y(Carboxymethyl)[Orn][dL]H[Cha][Thr(3ξ)]SC[Dab][Aun]-OH; thioether N-14), the IC50 came to 20.7 nM.

Turning to `Cc1cccc(C[C@@H]2NC(=O)[C@H](CC(=O)O)NC(=O)[C@H](Cc3ccc(OCC(=O)O)cc3)NC(=O)[C@H](Cc3ccncc3)NC(=O)CSC[C@@H](C(=O)N[C@@H](CCN)C(=O)NCCOCCOCC(=O)NCCOCCOCC(=O)NCCCCCCCCCCC(=O)O)NC(=O)[C@H](Cc3cnc[nH]3)NC(=O)[C@H](C(C)(C)O)NC(=O)[C@H](CC3CCCCC3)NC(=O)[C@H](CCN)NC(=O)[C@@H](CC(C)C)NC(=O)[C@H](CCCN)NC(=O)[C@H](Cc3ccc(C(=O)O)cc3)NC(=O)[C@H](Cc3ccc(-c4ccccc4)cc3)NC(=O)[C@H](Cc3ccc(C(=O)O)cc3)NC2=O)c1` [Compound 3742] ({CH2CO}-[4Pal]Y(Carboxymethyl)D[Phe(3-Me)][Phe(4-COOH)][Bip][Phe(4-COOH)][Orn][dL][Dab][Cha][Val(3-OH)]HC[Dab][AEEA][AEEA][Aun]-OH; thioether N-14), the IC50 was 1.7 nM.

For the compound `Cc1cccc(C[C@@H]2NC(=O)[C@H](CC(=O)O)NC(=O)[C@H](Cc3ccc(OCC(=O)O)cc3)NC(=O)CNC(=O)CSC[C@@H](C(=O)N[C@@H](CCN)C(=O)NCCCCCCCCCCC(=O)O)NC(=O)[C@H](CO)NC(=O)[C@H](C(C)(C)O)NC(=O)[C@H](CC3CCCCC3)NC(=O)[C@H](CCN)NC(=O)[C@@H](CC(C)C)NC(=O)[C@H](CCCN)NC(=O)[C@H](Cc3ccc(OCC(=O)O)cc3)NC(=O)[C@H](Cc3ccc(-c4ccccc4)cc3)NC(=O)[C@H](Cc3ccc(OCC(=O)O)cc3)NC2=O)c1` [Compound 2209] ({CH2CO}-GY(Carboxymethyl)D[Phe(3-Me)]Y(Carboxymethyl)[Bip]Y(Carboxymethyl)[Orn][dL][Dab][Cha][Val(3-OH)]SC[Dab][Aun]-OH; thioether N-14), the IC50 is 45.5 nM.

As to `Cc1cccc(C[C@@H]2NC(=O)[C@H](CC(=O)O)NC(=O)[C@H](Cc3ccc(OCC(=O)O)cc3)NC(=O)[C@H](CN)NC(=O)CSC[C@@H](C(=O)N[C@@H](C)C(=O)N[C@@H](CCC(=O)O)C(=O)NCCOCCOCC(=O)N[C@@H](CCC(=O)NCCOCCOCC(=O)NCCCCCCCCCCC(=O)O)C(=O)O)NC(=O)[C@H]([C@@H](C)O)NC(=O)[C@H](C(C)C)NC(=O)[C@H](CC3CCCCC3)NC(=O)[C@H](CCN)NC(=O)[C@@H](CC(C)C)NC(=O)[C@H](CCCN)NC(=O)[C@H](CCCNC(N)=O)NC(=O)[C@H](Cc3ccc(-c4ccccc4)cc3)NC(=O)[C@H](C(C)C)NC2=O)c1` [Compound 1015] ({CH2CO}-[Dap]Y(Carboxymethyl)D[Phe(3-Me)]V[Bip][Cit][Orn][dL][Dab][Cha]VTCAE[AEEA][γGlu][AEEA][Aun]-OH; thioether N-14), the IC50 was determined as 7.9 nM.

For `CCC[C@@H]1NC(=O)CSC[C@@H](C(=O)N[C@@H](CCN)C(=O)NCCOCCOCC(=O)NCCCCCCCCCCC(=O)O)NC(=O)[C@H](CC(=O)O)NC(=O)[C@H](C(C)C)NC(=O)[C@H](CC2CCCCC2)NC(=O)[C@H](CCN)NC(=O)[C@@H](CC(C)C)NC(=O)[C@H](CCCN)NC(=O)[C@H](Cc2ccc(OCC(=O)O)cc2)NC(=O)[C@H](Cc2ccc(-c3ccccc3)cc2)NC(=O)[C@H](Cc2ccc(OCC(=O)O)cc2)NC(=O)[C@H](Cc2cccc(C)c2)NC(=O)[C@H](CC(=O)O)NC(=O)[C@H](Cc2ccc(OCC(=O)O)cc2)NC1=O` [Compound 3804] ({CH2CO}-[Nva]Y(Carboxymethyl)D[Phe(3-Me)]Y(Carboxymethyl)[Bip]Y(Carboxymethyl)[Orn][dL][Dab][Cha]VDC[Dab][AEEA][Aun]-OH; thioether N-14), the IC50 is 0.2 nM.

In the case of `CC(C)C[C@H]1NC(=O)[C@H](CCCN)NC(=O)[C@H](Cc2ccc(OCC(=O)O)cc2)NC(=O)[C@H](Cc2ccc(-c3ccccc3)cc2)NC(=O)[C@H](Cc2ccc(O)cc2)NC(=O)[C@H](Cc2ccc(O)c(F)c2)NC(=O)[C@H](CC(=O)O)NC(=O)[C@H](Cc2ccc(OCC(=O)O)cc2)NC(=O)[C@H](CN)NC(=O)CSC[C@@H](C(=O)N[C@@H](CCN)C(=O)NCCCCCCCCCCC(=O)O)NC(=O)[C@H]([C@@H](C)O)NC(=O)[C@H](C(C)C)NC(=O)[C@H](CC2CCCCC2)NC(=O)[C@H](CCN)NC1=O` [Compound 2107] ({CH2CO}-[Dap]Y(Carboxymethyl)D[Tyr(3-F)]Y[Bip]Y(Carboxymethyl)[Orn][dL][Dab][Cha]VTC[Dab][Aun]-OH; thioether N-14), the IC50 worked out at 116 nM.

As for `Cc1cccc(C[C@@H]2NC(=O)[C@H](CC(=O)O)NC(=O)[C@H](Cc3ccc(OCC(=O)O)cc3)NC(=O)[C@H](CCCNC(=N)N)NC(=O)CSC[C@@H](C(=O)N[C@@H](CCN)C(=O)NCCCCCCCCCCC(=O)O)NC(=O)[C@H](CCC(=O)O)NC(=O)[C@H](C(C)C)NC(=O)[C@H](CC3CCCCC3)NC(=O)[C@H](CCN)NC(=O)[C@@H](CC(C)C)NC(=O)[C@H](CCCN)NC(=O)[C@H](CCC(N)=O)NC(=O)[C@H](Cc3ccc(-c4ccccc4)cc3)NC(=O)[C@H](C(C)C)NC2=O)c1` [Compound 3384] ({CH2CO}-RY(Carboxymethyl)D[Phe(3-Me)]V[Bip]Q[Orn][dL][Dab][Cha]VEC[Dab][Aun]-OH; thioether N-14), the IC50 came out at 9.2 nM.

In the case of `CC(C)C[C@@H]1NC(=O)[C@H](Cc2c[nH]c3ccccc23)NC(=O)[C@H](CC(=O)O)NC(=O)[C@H](Cc2ccc(C(=O)O)cc2)NC(=O)[C@H](Cc2ccc(OCC(=O)O)cc2)NC(=O)CSC[C@@H](C(=O)N[C@@H](CN)C(=O)NCCCCCCCCCCC(=O)O)NC(=O)[C@H](CCCNC(N)=O)NC(=O)[C@H](C(C)C)NC(=O)[C@H](CC2CCCCC2)NC(=O)[C@H](CCN)NC(=O)[C@@H](CC(C)C)NC(=O)[C@H](CCCN)NC(=O)[C@H](Cc2ccc(O)cc2)NC(=O)[C@H](Cc2ccc(-c3ccccc3)cc2)NC1=O` [Compound 1233] ({CH2CO}-Y(Carboxymethyl)[Phe(4-COOH)]DWL[Bip]Y[Orn][dL][Dab][Cha]V[Cit]C[Dap][Aun]-OH; thioether N-14), the IC50 came to 22.1 nM.
